In paper PMC4033665 (Journal of Medicinal Chemistry, 2014):
Entries after “also recorded” stand apart in the source; their conditions may differ. Where two headings read alike, the source gives them in different places.

Experiments:
human Mcl-1 [1] = target: T1, human Mcl-1 (Homo sapiens, UniProt Q07820); format: binding; conditions: for improved binding compared to 1: reference compound 1
human Mcl-1 [2] = target: T1, human Mcl-1; format: binding; conditions: for improved binding in SPR assay compared to 3: reference compound 3; for decrease of binding in SPR assay compared to 10: reference compound 10
[3] = system: Eμ-myc/Mcl-1 lymphoma cells; assay: cell death; format: cell-based, mice; conditions: 15–18 h, increasing concentrations
[4] = system: Eμ-myc/Bcl-2 lymphoma cells; assay: cell death; format: cell-based, mice; conditions: 15–18 h, increasing concentrations
HL-60 cells = assay: apoptosis by annexin-V / PI double staining, flow cytometry, HL-60; format: cell-based, human; conditions: for induction of apoptosis in HL-60 (in words) / apoptotic cells (early + late): 20 h
[5] = system: caspase-3 activity in HL-60 cells; assay: caspase-3 fluorometric assay; format: cell-based, human; conditions: for induction of caspase-3 activity (in words): HL-60, 20 h
endogenous Mcl-1 protein = endogenous Mcl-1 protein (Homo sapiens, UniProt Q07820); assay: biotin-streptavidin pull-down with biotin-labeled Noxa in 2LMP whole cell lysate; conditions: BL-Noxa 0.1 μM
Mcl-1 = conditions: read-out: Ki of 53 to Mcl-1; cited from earlier work
Bcl-2 = conditions: read-out: Ki against Bcl-2; cited from earlier work
human Mcl-1 [6] = target: T1, human Mcl-1; assay: 1H,15N-HSQC NMR chemical shift perturbation of Mcl-1; format: binding; conditions: 15N-labeled Mcl-1 75 μM, Mcl-1:compound 1:1 and 1:2

endogenous Mcl-1 protein, sequence (Q07820 whole entry): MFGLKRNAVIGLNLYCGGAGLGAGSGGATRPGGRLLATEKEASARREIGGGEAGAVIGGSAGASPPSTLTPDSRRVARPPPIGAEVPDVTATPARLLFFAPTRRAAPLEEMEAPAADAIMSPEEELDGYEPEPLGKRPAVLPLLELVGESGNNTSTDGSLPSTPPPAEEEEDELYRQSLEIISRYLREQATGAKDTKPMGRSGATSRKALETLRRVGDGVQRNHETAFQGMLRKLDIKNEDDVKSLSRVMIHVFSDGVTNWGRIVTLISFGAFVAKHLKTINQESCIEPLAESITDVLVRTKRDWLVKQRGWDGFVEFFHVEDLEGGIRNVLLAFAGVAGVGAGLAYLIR
T1 sequence (Q07820 171-327): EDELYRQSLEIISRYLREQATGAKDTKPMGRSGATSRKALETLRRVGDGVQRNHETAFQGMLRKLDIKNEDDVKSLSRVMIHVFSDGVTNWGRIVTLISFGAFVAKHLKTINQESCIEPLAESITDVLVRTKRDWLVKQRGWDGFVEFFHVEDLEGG

O=C(O)CSc1cc(NS(=O)(=O)N2CCN(c3ccccc3)CC2)c2ccccc2c1O [Compound 23, 2-((1-Hydroxy-4-(4-phenylpiperazine-1-sulfonamido)naphthalen-2-yl)thio)acetic Acid]
decrease in binding in FP assay in comparison with 16 (human Mcl-1 [1]): 6 fold
decrease in binding in SPR assay in comparison with 16 (human Mcl-1 [2]; reference compound 16): 8 fold

O=C(O)CSc1cc(NS(=O)(=O)Cc2ccc(Cl)cc2)c2ccccc2c1O [Compound 26, 2-((4-((4-Chlorophenyl)methylsulfonamido)-1-hydroxynaphthalen-2-yl)thio)acetic Acid]
decreased binding affinity (FP) relative to 9 (human Mcl-1 [1]; reference compound 9): 6 fold

O=C(O)CSc1cc(NS(=O)(=O)c2ccc(Oc3ccccc3)cc2)c2ccccc2c1O [Compound 21, 2-((1-Hydroxy-4-(4-phenoxyphenylsulfonamido)naphthalen-2-yl)thio)acetic Acid]
less potent than 53 (Mcl-1 binding) (human Mcl-1 [1]): 3 fold
sensitivity of lymphoma cells overexpressing Mcl-1 to induced cell death [3]: significantly sensitive
sensitivity of lymphoma cells overexpressing Bcl-2 to induced cell death [4]: ineffective
induction of apoptosis in HL-60 (in words) (HL-60 cells; 2.5, 5.0 and 10 μM): effectively induced apoptosis in a dose-dependent manner
concentration at which induction of apoptosis starts (HL-60 cells; HL-60): 2.5 µM
apoptotic cells (early + late) (HL-60 cells; HL-60, 5.0 μM): 37.8%
apoptotic cells (early + late) (HL-60 cells; HL-60, 10 μM): 78.4%
induction of caspase-3 activity (in words) [5]: induce activation of caspase-3 activity in a dose-dependent manner; also recorded: induced activation of caspase-3
concentration at which activation of caspase-3 starts ([5]; HL-60, over a 24 h period): 2.5 µM
binding of BL-Noxa to Mcl-1 after preincubation (pull-down, Western blot) (endogenous Mcl-1 protein): completely blocked

COc1c(I)cc(C=O)c2ccccc12 [Compound 53]
Ki (Mcl-1): 55 nM
Ki (Bcl-2): 870 nM

O=C(O)CSc1cc(NC(=O)c2ccc(Br)cc2)c2ccccc2c1O [Compound 25, 2-((4-(4-Bromobenzamido)-1-hydroxynaphthalen-2-yl)thio)acetic Acid]
decrease of binding in FP assay compared to 10 (human Mcl-1 [1]): 83 fold

O=C(O)CSc1cc(NS(=O)(=O)c2cccc(-c3ccccc3)c2)c2ccccc2c1O [Compound 17, 2-((4-([1,1′-Biphenyl]-3-ylsulfonamido)-1-hydroxynaphthalen-2-yl)thio)acetic Acid]
improved binding in FP assay compared to 3 (human Mcl-1 [1]; reference compound 3): 10 fold
improved binding in SPR assay compared to 3 (human Mcl-1 [2]): 6 fold

O=C(O)CSc1cc(CNS(=O)(=O)c2ccccc2)c2ccccc2c1O [Compound 27]
decreased binding in FP assay compared to 3 (human Mcl-1 [1]): 18 fold

COC(=O)CSc1cc(NS(=O)(=O)c2ccc(Br)cc2)c2ccccc2c1OC [Compound 41, Methyl 2-((4-(4-Bromophenylsulfonamido)-1-methoxynaphthalen-2-yl)thio)acetate]
did not show binding up to (FP assay, highest concentration tested) (human Mcl-1 [1]): > 100 µM
sensitivity of lymphoma cells overexpressing Mcl-1 to induced cell death [3]: did not show any activity
sensitivity of lymphoma cells overexpressing Bcl-2 to induced cell death [4]: did not show any activity
induction of apoptosis in HL-60 (in words) (HL-60 cells; 40 μM): has no effect on apoptosis induction

O=C(O)CSc1cc(NS(=O)(=O)c2ccc(-c3ccc(Cl)cc3)cc2)c2ccccc2c1O [Compound 19, 2-((4-(4′-Chloro-[1,1′-biphenyl]-4-ylsulfonamido)-1-hydroxynaphthalen-2-yl)thio)acetic Acid]
less potent than 53 (Mcl-1 binding) (human Mcl-1 [1]): 3 fold
improved binding compared to 1 (human Mcl-1 [1]): 9 fold
improved binding in FP assay compared to 3 (human Mcl-1 [1]; reference compound 3): 21 fold
improved binding in SPR assay compared to 3 (human Mcl-1 [2]): 14 fold
sensitivity of lymphoma cells overexpressing Mcl-1 to induced cell death [3]: significantly sensitive
sensitivity of lymphoma cells overexpressing Bcl-2 to induced cell death [4]: ineffective
induction of caspase-3 activity (in words) [5]: induce activation of caspase-3 activity in a dose-dependent manner; also recorded: induced activation of caspase-3
binding of BL-Noxa to Mcl-1 after preincubation (pull-down, Western blot) (endogenous Mcl-1 protein): completely blocked

CC(C)(C)c1ccc(S(=O)(=O)Nc2cc(SCC(=O)O)c(O)c3ccccc23)cc1 [Compound 7]
improved binding in FP assay compared to 3 (human Mcl-1 [1]; reference compound 3): 4.5 fold
improved binding in SPR assay compared to 3 (human Mcl-1 [2]): 1.5 fold

NC(=O)CSc1cc(NS(=O)(=O)c2ccc(Br)cc2)c2ccccc2c1O [Compound 33, 2-((4-(4-Bromophenylsulfonamido)-1-hydroxynaphthalen-2-yl)thio)acetamide]
decrease of binding in FP assay compared to 10 (human Mcl-1 [1]): 3 fold
decrease of binding in SPR assay compared to 10 (human Mcl-1 [2]): 2 fold

O=C(O)CSc1cc(NS(=O)(=O)c2ccc(-c3ccccc3)cc2)c2ccccc2c1O [Compound 16, 2-((4-([1,1′-Biphenyl]-4-ylsulfonamido)-1-hydroxynaphthalen-2-yl)thio)acetic Acid]
improved binding in FP assay compared to 3 (human Mcl-1 [1]): 10 fold
improved binding in SPR assay compared to 3 (human Mcl-1 [2]): 6 fold

O=S(=O)(Nc1ccc(O)c2ccccc12)c1ccccc1 [Compound 30]
did not show binding up to (FP assay, highest concentration tested) (human Mcl-1 [1]; competitive FP, Mcl-1): > 100 µM

COc1ccc(S(=O)(=O)Nc2cc(SCC(=O)O)c(O)c3ccccc23)cc1 [Compound 11, 2-((1-Hydroxy-4-(4-methoxyphenylsulfonamido)naphthalen-2-yl)thio)acetic Acid]
decreased binding in FP assay compared to 3 (human Mcl-1 [1]): 3 fold

COC(=O)CSc1cc(NS(=O)(=O)c2ccc(Br)cc2)c2ccccc2c1O [Compound 32, Methyl 2-((4-(4-Bromophenylsulfonamido)-1-hydroxynaphthalen-2-yl)thio)acetate]
decrease of binding in FP assay compared to 10 (human Mcl-1 [1]; reference compound 10): 10 fold
decrease of binding in SPR assay compared to 10 (human Mcl-1 [2]): 6 fold

O=S(=O)(Nc1cc(SCc2nnn[nH]2)c(O)c2ccccc12)c1ccc(Oc2ccccc2)cc1 [Compound 37, N-(3-(((2H-Tetrazol-5-yl)methyl)thio)-4-hydroxynaphthalen-1-yl)-4-phenoxybenzenesulfonamide]
induction of apoptosis in HL-60 (in words) (HL-60 cells; 2.5, 5.0 and 10 μM): effectively induced apoptosis in a dose-dependent manner
apoptotic cells (early + late) (HL-60 cells; HL-60, 5.0 μM): 51.6%
apoptotic cells (early + late) (HL-60 cells; HL-60, 10 μM): 74.2%
induction of apoptosis in the presence of Z-VAD-FMK (in words) (HL-60 cells; HL-60, pretreated with 100 μM Z-VAD-FMK): significantly inhibited

COC(=O)C[C@H](NC(=O)[C@H](C)NC(=O)[C@@H](NC(=O)OCc1ccccc1)C(C)C)C(=O)CF (racemic) [Z-VAD-FMK, Z-Val-Ala-DL-Asp-fluoromethylketone, reference compound]
effect of Z-VAD-FMK alone on cells (HL-60 cells; HL-60, Figure S7): has no effect on cells

CC1(C)CCC(c2ccc(Cl)cc2)=C(CN2CCN(c3ccc(C(=O)NS(=O)(=O)c4ccc(N[C@H](CCN5CCOCC5)CSc5ccccc5)c(S(=O)(=O)C(F)(F)F)c4)cc3)CC2)C1 [ABT-263, reference compound]
sensitivity of lymphoma cells overexpressing Mcl-1 to induced cell death [3]: insensitive
sensitivity of lymphoma cells overexpressing Bcl-2 to induced cell death [4]: sensitive

CC(=O)Oc1c(SCC(=O)O)cc(NS(=O)(=O)c2ccc(Br)cc2)c2ccccc12 [Compound 46, 2-((1-Acetoxy-4-(4-bromophenylsulfonamido)naphthalen-2-yl)thio)acetic Acid]
decrease of binding in FP assay compared to 10 (human Mcl-1 [1]; reference compound 10): 69 fold

CCCCSc1cc(NS(=O)(=O)c2ccc(Br)cc2)c2ccccc2c1O [Compound 31, 4-Bromo-N-(3-(butylthio)-4-hydroxynaphthalen-1-yl)benzenesulfonamide]
did not show binding up to (FP assay, highest concentration tested) (human Mcl-1 [1]; competitive FP, Mcl-1): > 100 µM

CS(=O)(=O)Nc1cc(SCC(=O)O)c(O)c2ccccc12 [Compound 2, 2-((1-Hydroxy-4-(methylsulfonamido)naphthalen-2-yl)thio)acetic Acid]
chemical shift perturbation of Mcl-1 backbone residues (HSQC NMR, in words) (human Mcl-1 [6]): lack of chemical shift perturbation

O=C(O)CSc1cc(NS(=O)(=O)c2ccc(Br)cc2)c2ccccc2c1O [Compound 10, 2-((4-(4-Bromophenylsulfonamido)-1-hydroxynaphthalen-2-yl)thio)acetic Acid]
improved binding compared to 1 (human Mcl-1 [1]): 7 fold
improved binding in FP assay compared to 3 (human Mcl-1 [1]; reference compound 3): 7 fold
improved binding in SPR assay compared to 3 (human Mcl-1 [2]): 5 fold
binding of BL-Noxa to Mcl-1 after preincubation (pull-down, Western blot) (endogenous Mcl-1 protein): completely blocked
